Assay results as given in patent US6486343B1, “Substituted phenyl keto enols as pesticides and herbicides” (Bayer Aktiengesellschaft, priority 1996, dated 2002).

How the values were obtained:
Format in all cases: in vivo
[1] = system: caterpillars of the diamond-back moth (Plutella maculipennis); experiment: Plutella test; conditions: active compound concentration 0.1%; after 7 days; cabbage leaves dipped
Method: Plutella Test Solvent: 7 parts by weight of dimethylformamide Emulsifier: 1 part by weight of alkylaryl polyglycol ether To produce a suitable preparation of active compound, 1 part by weight of active compound is mixed with the stated amount of solvent and the stated amount of emulsifier, and the concentrate is diluted with water to the desired concentration. Cabbage leaves (Brassica oleracea) are treated by being dipped into the preparation of active compound of the desired concentration and are infested with caterpillars of the diamond-back moth (Plutella maculipennis) while the leaves are still moist. After the specified period of time, the destruction in % is determined. 100% means that all the caterpillars have been killed; 0% means that none of the caterpillars have been killed.

[2] = system: mustard beetle larvae (Phaedon cochleariae); experiment: Phaedon larvae test; conditions: active compound concentration 1000 ppm; after 7 days; cabbage leaves dipped
Method: (§1) Phaedon Larvae Test Solvent: 7 parts by weight of dimethylformamide Emulsifier: 1 part by weight of alkylaryl polyglycol ether To produce a suitable preparation of active compound, 1 part by weight of active compound is mixed with the stated amount of solvent and the stated amount of emulsifier, and the concentrate is diluted with water to the desired concentration. Cabbage leaves (Brassica oleracea) are treated by being dipped into the preparation of the active compound of the desired concentration and are infested with mustard beetle larvae (Phaedon cochleariae) while the leaves are still moist. After the specified period of time, the destruction in % is determined. 100% means that all the beetle larvae have been killed; 0% means that none of the beetle larvae have been killed.

[3] = system: larvae of the green rice leafhopper (Nephotettix cincticeps); experiment: Nephotettix test; conditions: active compound concentration 0.1%; after 6 days; rice seedlings dipped
Method: as §1, with “Nephotettix” for “Phaedon Larvae”, “Rice seedlings (Oryzae sativa)” for “Cabbage leaves (Brassica oleracea)”, “with” for “with mustard beetle”, “of the green rice leafhopper (Nephotettix cincticeps)” for “(Phaedon cochleariae)”, “seedlings” for “leaves”, “leafhoppers” for “beetle larvae”

[4] = system: spider mite (Tetranychus urticae); experiment: Tetranychus test (OP resistant/dip treatment); conditions: active compound concentration 0.1%; after 5 days; bean plants dipped
Method: Tetranychus Test (OP Resistant/dip Treatment)
Solvent: 3 parts by weight of dimethylformamide
Emulsifier: 1 part by weight of alkylaryl polyglycol ether
To produce a suitable preparation of active compound, 1 part by weight of active compound is mixed with the stated amount of solvent and the stated amount of emulsifier, and the concentrate is diluted with water to the desired concentration.
Bean plants (Phaseolus vulgaris) heavily infected by all stages of the spider mite (Tetranychus urticae) are dipped into a preparation of the active compound of the desired concentration.
After the specified period of time, the destruction in % is determined. 100% means that all spider mites have been killed; 0% means that none of the spider mites have been killed.

| SMILES | destruction in % [1] [%] | destruction in % [2] [%] | destruction in % [3] [%] | destruction in % [4] [%] |
| --- | --- | --- | --- | --- |
| CCOC(=O)OC1=C(c2c(C)ccc(Cl)c2C)C(=O)NC12CCC(C)CC2 (centres unmarked) [I-1-c-1] | 100 | 100 | – | – |
| Cc1ccc(Cl)c(C)c1C1=C(OC(=O)CC(C)C)C2(CCC(C)CC2)NC1=O (centres unmarked) [I-1-b-1] | 100 | 100 | 100 | – |
| Cc1ccc(Cl)c(C)c1C1=C(OC(=O)C(C)(C)C)C2(CCCCC2)OC1=O [I-2-b-1] | – | – | – | 100 |
| Cc1ccc(Cl)c(C)c1C1=C(O)C2(CCC(C)CC2)NC1=O (centres unmarked) [I-1-a-1] | – | – | 100 | 100 |
